Measurements reported in US20180194762A1 (Pharmacyclics LLC, priority 2017, published 2018).

Experiments:
Type in all cases: biochemical
[1] = molecular target: T1, TEC (Homo sapiens, UniProt P42680); assay: Inhibition of a panel of kinases (in vitro HotSpot kinase assay, 33P-ATP, 1 μM ATP); details: for IC50: HotSpot kinase assay, 1 μM ATP; for TEC/Btk: ratio of TEC IC50 to Btk IC50 (selectivity)
T1 sequence (P42680 1-631): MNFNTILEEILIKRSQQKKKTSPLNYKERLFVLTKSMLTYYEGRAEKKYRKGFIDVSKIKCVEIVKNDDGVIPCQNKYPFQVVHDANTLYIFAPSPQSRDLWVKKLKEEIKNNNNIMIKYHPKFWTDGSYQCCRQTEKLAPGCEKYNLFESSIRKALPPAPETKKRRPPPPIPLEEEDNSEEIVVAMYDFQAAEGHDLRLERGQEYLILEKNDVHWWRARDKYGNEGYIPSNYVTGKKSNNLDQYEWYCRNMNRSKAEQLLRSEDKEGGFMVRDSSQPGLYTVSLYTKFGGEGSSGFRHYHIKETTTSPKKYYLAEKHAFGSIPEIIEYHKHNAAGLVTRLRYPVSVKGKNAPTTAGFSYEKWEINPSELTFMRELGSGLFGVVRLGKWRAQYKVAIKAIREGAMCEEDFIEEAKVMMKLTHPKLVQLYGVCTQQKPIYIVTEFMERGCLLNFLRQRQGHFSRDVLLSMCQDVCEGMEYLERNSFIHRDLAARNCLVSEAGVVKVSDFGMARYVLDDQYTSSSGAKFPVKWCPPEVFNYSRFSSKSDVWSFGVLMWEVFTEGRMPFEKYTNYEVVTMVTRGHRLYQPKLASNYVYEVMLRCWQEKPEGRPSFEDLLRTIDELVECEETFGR
Method in brief: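 Degree of kinase inhibition is determined in vitro using isolated enzymes, a matched substrate and radiolabelled ATP (1 μM).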

[2] = molecular target: T2, panel of kinases (Homo sapiens, UniProt P51813); assay: Inhibition of a panel of kinases (in vitro HotSpot kinase assay, 33P-ATP, 1 μM ATP), other kinases; details: BMX wild-type, read-out: BMX-WT IC50
T2 sequence (P51813 1-675): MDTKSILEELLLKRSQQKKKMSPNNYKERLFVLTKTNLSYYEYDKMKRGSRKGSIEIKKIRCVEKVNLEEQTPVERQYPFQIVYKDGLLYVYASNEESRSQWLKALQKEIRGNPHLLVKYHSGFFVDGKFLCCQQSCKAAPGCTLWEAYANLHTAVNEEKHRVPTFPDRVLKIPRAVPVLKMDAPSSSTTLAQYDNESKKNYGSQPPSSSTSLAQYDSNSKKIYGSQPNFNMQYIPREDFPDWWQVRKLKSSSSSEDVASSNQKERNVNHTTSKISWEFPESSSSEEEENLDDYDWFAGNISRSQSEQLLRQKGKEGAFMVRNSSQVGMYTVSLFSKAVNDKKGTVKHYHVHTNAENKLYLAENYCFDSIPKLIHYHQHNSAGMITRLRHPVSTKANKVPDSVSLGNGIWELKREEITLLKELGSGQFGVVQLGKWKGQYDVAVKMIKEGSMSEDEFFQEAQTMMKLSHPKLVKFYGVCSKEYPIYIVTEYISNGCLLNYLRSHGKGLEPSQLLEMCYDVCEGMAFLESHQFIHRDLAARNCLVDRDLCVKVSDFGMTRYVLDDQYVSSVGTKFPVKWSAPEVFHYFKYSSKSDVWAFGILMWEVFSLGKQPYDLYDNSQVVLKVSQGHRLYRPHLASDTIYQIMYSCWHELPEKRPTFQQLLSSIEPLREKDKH
Protocol: Example 63: Inhibition of a Panel of Kinases The degree of inhibition of a panel of kinases is determined using the in vitro HotSpot kinase assay (purified enzymes, ^33P-ATP, an appropriate substrate and 1 μM ATP).

[3] = molecular target: T3, Btk (Homo sapiens, UniProt Q06187); assay: Btk in vitro inhibitory activity (one of Method A TR-FRET, Method B electrophoretic mobility shift, Method C radiometric filter binding); details: wild-type Btk; read-out: Btk-WT IC50
T3 construct: purified from insect cells as a full-length construct containing a N-terminal 6X-His tag; His6 (N); made in house; host or cells: insect cells (Method C)
T3 sequence (Q06187 whole entry): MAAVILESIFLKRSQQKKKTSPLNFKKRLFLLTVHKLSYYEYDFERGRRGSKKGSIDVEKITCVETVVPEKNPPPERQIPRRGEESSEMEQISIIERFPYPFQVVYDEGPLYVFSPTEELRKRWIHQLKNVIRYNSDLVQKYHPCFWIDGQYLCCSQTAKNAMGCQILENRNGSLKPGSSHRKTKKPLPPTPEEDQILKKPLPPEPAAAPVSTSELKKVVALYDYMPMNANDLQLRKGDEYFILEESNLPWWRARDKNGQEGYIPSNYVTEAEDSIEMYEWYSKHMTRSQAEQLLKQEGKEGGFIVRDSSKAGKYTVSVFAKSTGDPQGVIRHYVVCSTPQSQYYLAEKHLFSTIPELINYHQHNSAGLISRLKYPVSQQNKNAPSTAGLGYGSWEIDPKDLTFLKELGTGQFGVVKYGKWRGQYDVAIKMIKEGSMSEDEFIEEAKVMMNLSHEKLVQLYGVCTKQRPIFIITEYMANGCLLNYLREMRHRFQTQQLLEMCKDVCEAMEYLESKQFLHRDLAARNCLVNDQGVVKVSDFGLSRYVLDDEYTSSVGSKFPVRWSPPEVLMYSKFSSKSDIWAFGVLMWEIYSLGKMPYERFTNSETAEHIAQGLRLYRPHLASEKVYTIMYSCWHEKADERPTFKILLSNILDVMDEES
Method in brief: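 Method A: TR-FRET with 0.5 nM Btk at [ATP]=Km, EDTA-quenched, 665/615 nm ratio; Ki(app) converted to IC50. Method B: 1 nM full-length His6 human BTK, 1 μM FAM peptide, pH 7.5, mobility-shift product/sum ratio, 12-point 4-parameter fit. Method C: radiometric filter binding, 8 nM His-tagged BTK, 0.2 mg/mL poly-Glu-Tyr.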

| SMILES | IC50 [1] [µM] | TEC/Btk [1] | IC50 [2] [µM] | IC50 [3] [µM] |
| --- | --- | --- | --- | --- |
| CC(C)(C)c1nc(C(=O)NC2(c3ccc(-c4ccnc5[nH]nc(N[C@@H]6CCNC6)c45)cc3)CC2)no1 [Compound 1, 5-tert-butyl-N-{1-[4-(3-{[(3R)-pyrrolidin-3-yl]amino}-1H-pyrazolo[3,4-b]pyridin-4-yl)phenyl]cyclopropyl}-1,2,4-oxadiazole-3-carboxamide] | > 10 | >100 | > 10 | 0.0577 |
| CC(C)(C)c1nc(C(=O)NCc2ccc(-c3ccnc4[nH]nc(N[C@@H]5CCNC5)c34)cc2F)no1 [Compound 2, (R)-5-(tert-butyl)-N-(2-fluoro-4-(3-(pyrrolidin-3-ylamino)-1H-pyrazolo[3,4-b]pyridin-4-yl)benzyl)-1,2,4-oxadiazole-3-carboxamide] | 0.95 | 82 | 1.98 | 0.0116 |
| C=CC(=O)N1CC[C@@H](Nc2n[nH]c3nccc(-c4ccc(CNC(=O)c5noc(C(C)(C)C)n5)c(F)c4)c23)C1 [Compound 3, (R)—N-(4-(3-((1-acryloylpyrrolidin-3-yl)amino)-1H-pyrazolo[3,4-b]pyridin-4-yl)-2-fluorobenzyl)-5-(tert-butyl)-1,2,4-oxadiazole-3-carboxamide] | 0.02 | 98 | 0.039 | 0.000205 |
| C=CC(=O)N1CC[C@@H](Nc2n[nH]c3nccc(-c4ccc(C5(NC(=O)c6noc(C(C)(C)C)n6)CC5)cc4)c23)C1 [Compound 4, (R)—N-(1-(4-(3-((1-acryloylpyrrolidin-3-yl)amino)-1H-pyrazolo[3,4-b]pyridin-4-yl)phenyl)cyclopropyl)-5-(tert-butyl)-1,2,4-oxadiazole-3-carboxamide] | 0.103 | 184 | 0.132 | 0.000559 |
| CCC(=O)N1CC[C@@H](Nc2n[nH]c3nccc(-c4ccc(C5(NC(=O)c6noc(C(C)(C)C)n6)CC5)cc4)c23)C1 [Compound 5, (R)-5-(tert-butyl)-N-(1-(4-(3-((1-propionylpyrrolidin-3-yl)amino)-1H-pyrazolo[3,4-b]pyridin-4-yl)phenyl)cyclopropyl)-1,2,4-oxadiazole-3-carboxamide] | 2.59 | 49 | 4.35 | 0.0527 |
| C=CC(=O)N1CC[C@@H](Nc2n[nH]c3nccc(-c4ccc(CNC(=O)c5ccc(C(C)(C)C)cc5)c(F)c4)c23)C1 [Compound 6, 4-tert-butyl-N-{[2-fluoro-4-(3-{[(3R)-1-(prop-2-enoyl)pyrrolidin-3-yl]amino}-1H-pyrazolo[3,4-b]pyridin-4-yl)phenyl]methyl}benzamide] | 0.13 | 210 | 0.182 | 0.00062 |
| CC#CC(=O)N1CC[C@@H](Nc2n[nH]c3nccc(-c4ccc(CNC(=O)c5ccc(C(C)(C)C)cc5)c(F)c4)c23)C1 [Compound 7, N-{[4-(3-{[(3R)-1-(but-2-ynoyl)pyrrolidin-3-yl]amino}-1H-pyrazolo[3,4-b]pyridin-4-yl)-2-fluorophenyl]methyl}-4-tert-butylbenzamide] | 0.296 | 179 | 0.274 | 0.00165 |
| CC(C)(C)c1ccc(C(=O)NCc2ccc(-c3ccnc4[nH]nc(N[C@@H]5CCNC5)c34)cc2F)cc1 [Compound 8, 4-tert-butyl-N-{[2-fluoro-4-(3-{[(3R)-pyrrolidin-3-yl]amino}-1H-pyrazolo[3,4-b]pyridin-4-yl)phenyl]methyl}benzamide] | > 10 | – | > 10 | 0.144 |
| C=CC(=O)N1CC[C@@H](Nc2n[nH]c3nccc(-c4cccc(NC(=O)c5ccc(C(C)(C)C)cc5)c4C)c23)C1 [Compound 9, 4-tert-butyl-N-[2-methyl-3-(3-{[(3R)-1-(prop-2-enoyl)pyrrolidin-3-yl]amino}-1H-pyrazolo[3,4-b]pyridin-4-yl)phenyl]benzamide] | 2.46 | 680 | 1.91 | 0.00362 |
| CC#CC(=O)N1CC[C@@H](Nc2n[nH]c3nccc(-c4cccc(NC(=O)c5ccc(C(C)(C)C)cc5)c4C)c23)C1 [Compound 10, N-[3-(3-{[(3R)-1-(but-2-ynoyl)pyrrolidin-3-yl]amino}-1H-pyrazolo[3,4-b]pyridin-4-yl)-2-methylphenyl]-4-tert-butylbenzamide] | 8.35 | 637 | > 10 | 0.0131 |
| C=CC(=O)N1CC[C@@H](Nc2n[nH]c3nccc(-c4cccc(-n5ccc6cc(C7CC7)cc(F)c6c5=O)c4COC(C)=O)c23)C1 [Compound 16, [2-(6-cyclopropyl-8-fluoro-1-oxo-1,2-dihydroisoquinolin-2-yl)-6-(3-{[(3R)-1-(prop-2-enoyl)pyrrolidin-3-yl]amino}-1H-pyrazolo[3,4-b]pyridin-4-yl)phenyl]methyl acetate] | 3.99 | – | 4.05 | > 10 |
| O=C(NCc1ccc(-c2ccnc3[nH]nc(NC4CCNC4)c23)cc1F)c1ccc2c(c1)OCCCO2 (stereo not drawn) [Example 350, N-[(2-fluoro-4-{3-[(pyrrolidin-3-yl)amino]-1H-pyrazolo[3,4-b]pyridin-4-yl}phenyl)methyl]-3,4-dihydro-2H-1,5-benzodioxepine-7-carboxamide] | – | – | 7 | 0.719 |
| O=C(NCc1ccc(-c2ccnc3[nH]nc(N[C@@H]4CCNC4)c23)cc1F)c1ccc2scnc2c1 [Example 352, (R)-N-[(2-fluoro-4-{3-[(pyrrolidin-3-yl)amino]-1H-pyrazolo[3,4-b]pyridin-4-yl}phenyl)methyl]-1,3-benzothiazole-5-carboxamide] | – | – | 1.53 | 0.108 |
| CC(=O)N[C@@H]1CCN(c2n[nH]c3nccc(-c4ccc([C@@H](C)NC(=O)c5cc(C(C)(C)O)on5)cc4)c23)C1 [Example 363, N-[(1R)-1-(4-{3-[(3R)-3-acetamidopyrrolidin-1-yl]-1H-pyrazolo[3,4-b]pyridin-4-yl}phenyl)ethyl]-5-(2-hydroxypropan-2-yl)-1,2-oxazole-3-carboxamide] | – | – | 5.5 | 0.0483 |
| C[C@@H](NC(=O)c1nc(C(C)(C)C)no1)c1ccc(-c2ccnc3[nH]nc(NC4CCN(S(C)(=O)=O)C4)c23)cc1 (stereo partly drawn) [Example 386, 3-tert-butyl-N-{(1R)-1-[4-(3-{[1-(methanesulfonyl)pyrrolidin-3-yl]amino}-1H-pyrazolo[3,4-b]pyridin-4-yl)phenyl]ethyl}-1,2,4-oxadiazole-5-carboxamide] | – | – | 6.92 | 0.0105 |
| C[C@@H](NC(=O)c1nc(C(C)(C)C)no1)c1ccc(-c2ccnc3[nH]nc(NC4CCN(S(C)(=O)=O)CC4)c23)cc1 [Example 387, 3-tert-butyl-N-{(1R)-1-[4-(3-{[1-(methanesulfonyl)piperidin-4-yl]amino}-1H-pyrazolo[3,4-b]pyridin-4-yl)phenyl]ethyl}-1,2,4-oxadiazole-5-carboxamide] | – | – | 7.21 | 0.0273 |
| C[C@@H](NC(=O)c1cc(C(C)(C)O)on1)c1ccc(-c2ccnc3[nH]nc(NC4CCOC4)c23)cc1 (stereo partly drawn) [Example 398, 5-(2-hydroxypropan-2-yl)-N-[(1R)-1-(4-{3-[(oxolan-3-yl)amino]-1H-pyrazolo[3,4-b]pyridin-4-yl}phenyl)ethyl]-1,2-oxazole-3-carboxamide] | – | – | 5.73 | 0.625 |
